Data set [1] addresses T1, recombinant human EP4 receptor membrane protein (Homo sapiens, UniProt P35408).
T1 construct: expressed in transfected cells; host or cells: membranes of 293 cells overexpressing human EP4 receptor
The data set can be described thus: Radioligand binding assay for EP4 receptor ([3H]-PGE2). The note with it: [3H]-PGE2 1.5 nM; membrane protein 20 μg/well. The method, then:
The compounds to be tested and PGE2 were formulated as 10 mM stocks in a DMSO solvent, and then 8 concentration points of 4× working solution were serially diluted using a buffer (50 mM HBSS, 0.1% BSA, 500 mM NaCl). […] Unifilter-96 GF/C filter plate (Perkin Elmer) was soaked with 0.5% BSA, 50 μL per well, for at least 30 min at room temperature. After binding was complete, the reaction mixture was harvested through a GF/C plate using a Perkin Elmer Filtermate Harvester, followed by washing the filter plate and drying the filter plate for 1 hour at 50° C. After drying, the bottom of the filter plate wells was sealed using a Perkin Elmer Unifilter-96 sealing tape, and 50 μL of MicroScint™-20 cocktail (Perkin Elmer) was added to seal the top of the filter plate. The ^3H counts captured on the filter were read using a Perkin Elmer MicroBeta2 Reader.
The IC50 and Ki values of the compounds determined by the radioligand binding assay for EP4 receptor were calculated based on the inhibition rate of the different concentrations of the compounds.

In data set [2] the target is T2, human EP4 receptor (Homo sapiens, UniProt P35408). Description: Assay for EP4 antagonistic effect (cAMP, PGE2-stimulated CHO stable cell line).
Procedure: After trypsinization, cells were resuspended in a buffer (1×HBSS, 0.1% BSA, 20 mM HEPES, and 500 μM IBMX) and 8000 cells were seeded per well in 384-well plates in a seeding volume of 15 μL. A working solution the compound with a 8× concentration was prepared with an experimental buffer, and then 2.5 μL of the working solution of the compound with 8× concentration was added to the 384-well plate, respectively, and incubated at 37° C. for 30 min. An agonist PGE2 working solution with 8× concentration of (4 nM) was prepared with the experimental buffer and 2.5 μL per well was added to the 384-well plate (the final PGE2 concentration was 0.5 nM) and incubated at 37° C. for 30 min. After the reaction was completed, the amount of cAMP in the cells was quantified according to the method in the instructions of the cAMP test kit (Perkin Elmer, Cat #TRF0263). The antagonistic effects (IC50 value) were calculated for the test compounds.
The nature of data set [3]: Mouse pharmacokinetic assay. The note with it: male, ICR, plasma. In kind it is in vivo, male ICR mice. The method, then:
(§1) In a mouse pharmacokinetic assay, male ICR mice (20 g to 25 g) were selected and fasted overnight. Three mice were selected and intragastrically administered with 5 mg/kg of the corresponding compound. The blood of the mice was collected before the administration and at 15 min, 30 min, 1 h, 2 h, 4 h, 8 h, 24 h after the administration. Another 3 mice were intravenously administered with 1 mg/kg of the corresponding compound, and the blood thereof was collected before the administration and at 15 min, 30 min, 1 h, 2 h, 4 h, 8 h, 24 h after the administration. The blood samples were centrifuged at 6800 g at 2° C. to 8° C. for 6 minutes, and plasma was collected and stored at −80° C. The plasma was taken at respective time point, mixed with 3-5 times the amount of acetonitrile containing internal standard, vortexed for 1 minute, centrifuged at 4° C. for 10 minutes at 13000 rpm, supernatant was added 3 times the amount of water, and the appropriate mixture was taken for LC-MS/MS analysis. The primary pharmacokinetic parameters were analyzed with a WinNonlin 7.0 software, with non-compartmental model.

Data set [4] deals with T2, human EP4 receptor. Description: Assay of calcium current inhibition on EP4 receptor (FLIPR, 293 cells). The format is cell-based. Further details: expressed in transfected cells; host or cells: 293 cells. The note with it: 293 cells overexpressing human EP4; PGE2 at EC80; FLIPR. The method, then:
The cells were rapidly thawed in a 37° C. water bath, centrifuged, resuspended, and counted. The cell suspensions were seeded at 20 μL/well in two 384-well plates (20,000 cells/well) and placed in an incubator (a 37° C., 5% CO2) overnight. Preparation of a 2× Fluo-4 Direct™ (Invitrogen, Cat #F10471) loading buffer: 77 mg of probenecid was added to 1 mL of a FLIPR buffer, with a concentration of 250 mM. 10 mL of FLIPR buffer and 0.2 mL of probenecid (250 mM) were added to each tube of Fluo-4 Direct™ crystals (F10471).
One of the cell plates was taken out of the incubator and the medium was removed. 20 μL of an assay buffer and 2× Fluo-4 Direct™ non-wash loading buffer were added to the 384-well cell culture plate to a final volume of 40 μL, and then the culture plate was incubated in an incubator (a 37° C., 5% CO2) for 50 minutes, and then at room temperature for 10 minutes, and then the plate was placed in the FLIPR. 10 μL of the buffer was transferred to the cell plate and the fluorescence signal was read. The agonist PGE2 was formulated as a 10 mM stock in a DMSO solvent and 10 concentration points of the 6× working solution were serially diluted using the buffer. 10 μL of the agonist PGE2 was transferred to the cell plate, the fluorescence signal was read to calculate EC80 value.
The agonist PGE2 was prepared at 6× EC80 concentration and the compound to be tested was formulated as a 10 mM stock solution in the DMSO solvent and 10 concentration points of the 6× compound working solution was serially diluted using the buffer.
Another cell plate was taken to remove media and 20 μL of the assay buffer and 2× Fluo-4 Direct™ non-wash loading buffer were added; the cell plate was incubated in a 37° C., 5% CO2 incubator for 50 minutes and room temperature for 10 minutes and then placed in the FLIPR. 10 μL of the compound working solution, DMSO, and the EP4 full antagonist were transferred to the cell plate and the fluorescence signal was read. […] Inhibition (%)=100−(test group−EP4 full antagonist group)/(DMSO group−EP4 full antagonist group)*100
Compound's IC50 value of EP4 calcium current inhibition was calculated based on the inhibition rate at different concentrations of the compound.

A short description of data set [5]: Rat pharmacokinetic assay. In kind it is in vivo, male SD rats. The note with it: male, SD, plasma, rat. As to the method:
as §1
In a rat pharmacokinetic assay, male SD rats (180 g to 240 g) were selected and fasted overnight. Three rats were intragastrically administered with 5 mg/kg of the corresponding compound. Another 3 rats were intravenously administered with 1 mg/kg of the corresponding compound. The following operations were the same as the mouse pharmacokinetic assay.

Data set [6] is described as follows: Canine pharmacokinetic assay. The note with it: male, Beagle, dog, plasma, canine. In kind it is in vivo, male Beagle dogs. The method, then:
as §1
In a canine pharmacokinetic assay, male Beagle dogs (8 kg to 10 Kg) were selected and fasted overnight. Three Beagle dogs were taken and intragastrically administered with 3 mg/kg of the corresponding compound. Another 3 Beagle dogs were intravenously administered with 1 mg/kg of the corresponding compound. The following operations were the same as the mouse pharmacokinetic assay.

The subject of data set [7] is CT-26 murine colon cancer tumor model. The data set can be described thus: Anti-tumor effect in CT-26 murine colon cancer tumor model in combination with radiation therapy. The format is in vivo, mouse. The note with it: 150 mg/kg intragastric once daily in combination with radiotherapy (3Gry, once on day 1); day 23; tumor weight. The method, then: In this assay, the anti-tumor effects of the control compound and the compounds prepared in Examples 1 to 43, in combination with radiation therapy, were tested in a CT-26 murine colon cancer tumor model.
After one week of adaptive feeding of mice, CT-26 cells in a log phase were resuspended in PBS, 5×10^5 CT-26 cells were inoculated subcutaneously at the right flank at 100 μL per mouse, and tumor growth was observed regularly. When the tumor grew to an average volume of 60 to 80 mm^3, the mice carrying the tumor were randomly divided into 5 groups based on the tumor volume size, each group containing 10 mice of 10. These group were a group of Control compound (150 mg/kg) in combination with radiotherapy (3Gry), a group of Compound I-2 (150 mg/kg) in combination with radiotherapy, a group of Compound I-5 (150 mg/kg) in combination with radiotherapy, a group of radiotherapy (3Gry) alone, and a group of vehicle control. The mice were intragastrically administered with the corresponding compound once daily, for 23 days in total; radiation therapy was performed for one-time on the first day of the administration. Tumor volumes and mouse body weights were measured twice a week, and tumor weights were weighed at the end of the experiment. Efficacy evaluations were performed based on relative tumor inhibition (TGI), safety evaluations were performed based on changes in animal body weight and death. Tumor volume and relative tumor inhibition were calculated as follows:
Tumor volume (TV)=½×a×b^2, where a and b are the length and width of the tumor measurement, respectively.
Relative tumor inhibition rate TGI (%)=(TWc−TWt/TWc)×100%, where TWc is the mean tumor weight of the vehicle control group and TW is the mean tumor weight of the treatment group.

[8] abbreviates: oral gavage administration 5 mg/kg.
The mark [9] stands for this setting: intravenous administration 1 mg/kg.
[10] abbreviates: intravenous administration 1 mg/kg, read-out: Vz.
The mark [11] stands for this setting: oral gavage administration 3 mg/kg.

T2 sequence (P35408 whole entry): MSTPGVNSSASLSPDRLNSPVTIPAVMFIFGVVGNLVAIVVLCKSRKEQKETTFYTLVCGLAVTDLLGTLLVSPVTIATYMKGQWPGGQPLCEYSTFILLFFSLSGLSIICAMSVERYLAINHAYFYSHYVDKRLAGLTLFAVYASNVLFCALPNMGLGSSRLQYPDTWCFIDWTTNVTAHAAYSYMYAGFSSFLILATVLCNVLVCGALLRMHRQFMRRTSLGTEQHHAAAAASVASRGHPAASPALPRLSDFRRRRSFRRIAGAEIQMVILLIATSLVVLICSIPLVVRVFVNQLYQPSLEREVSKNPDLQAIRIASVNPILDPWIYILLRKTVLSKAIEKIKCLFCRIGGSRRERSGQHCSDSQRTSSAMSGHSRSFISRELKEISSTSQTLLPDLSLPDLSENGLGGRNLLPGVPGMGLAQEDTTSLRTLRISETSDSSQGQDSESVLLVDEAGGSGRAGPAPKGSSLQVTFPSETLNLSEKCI
T1 sequence (P35408 whole entry): as above

The IC50 is the concentration that gives 50% inhibition. By Ki is commonly meant the dissociation constant of the complex between target and ligand, obtained from inhibition or displacement. For orientation: AUC(0-t) means exposure summed from dosing to a finite time, without extrapolation to infinity. As usually defined, the Cmax is the highest concentration seen after dosing. For orientation: Tmax means the time from dosing to the highest level. A word on the half-life: it is the time in which the quantity being followed falls by half. High values mean slow loss, low ones fast loss. With `C[C@H](NC(=O)c1c(C(F)F)nn(C)c1Sc1cccc(C(F)(F)F)c1)c1ccc(C(=O)O)cc1` [Compound I-35, (S)-4-(1-(3-(difluoromethyl)-1-methyl-5-((3-(trifluoromethyl)phenyl)thio)-1H-pyrazole-4-carboxamido)ethyl)benzoic Acid], in data set [1], the concentration for half-maximal inhibition (IC50) was determined as 28 nM and the Ki is 15 nM. Moreover, the IC50 at human EP4 receptor [2] came to 6.6 nM. In addition, in data set [3] (setting [8]), the AUC(0-t) came out at 3060 ng·h/mL, the Cmax amounted to 1040 ng/mL, the time of peak concentration (Tmax) is 0.33 h and the half-life is 7.12 h. Moreover, the half-maximal inhibitory concentration (IC50) at human EP4 receptor [4] was found to be 6 nM.
The clearance is the volume of plasma or blood freed of the substance per unit of time. On to `C[C@H](NC(=O)c1c(C(F)F)nn(C)c1Oc1cccc(C(F)(F)F)c1)c1ccc(C(=O)O)cc1` [Control Compound, reference compound], for which the AUC(0-t) in data set [3] (setting [9]) is 974 ng·h/mL; in data set [3] (setting [8]), 1770 ng·h/mL; in data set [5] (setting [9]) it was 1420 ng·h/mL; in data set [5] (setting [8]) it was 6850 ng·h/mL; in data set [6] (setting [9]), 3730 ng·h/mL; in data set [6] (setting [11]), 6800 ng·h/mL. The clearance in data set [3] (setting [9]) is 14.7 mL/min/kg; in data set [5] (setting [9]) it was 10.2 mL/min/kg; in data set [6] (setting [9]), 4 mL/min/kg. Further, the half-life is 6.64 h in data set [3] (setting [9]); 30.9 h in data set [3] (setting [8]); 10.9 h in data set [5] (setting [9]); 12.7 h in data set [5] (setting [8]); 9.36 h in data set [6] (setting [9]); 18.6 h in data set [6] (setting [11]). Further, the Vd in data set [3] (setting [10]) turned out to be 8.38 L/kg; in data set [5] (setting [10]), 9.55 L/kg; in data set [6] (setting [10]), 3.21 L/kg. Further, the Cmax was found to be 792 ng/mL in data set [3] (setting [8]), 1100 ng/mL in data set [5] (setting [8]) and 1360 ng/mL in data set [6] (setting [11]). The time to peak (Tmax) turned out to be 0.25 h in data set [3] (setting [8]), 0.5 h in data set [5] (setting [8]) and 1 h in data set [6] (setting [11]). Further, the “relative tumor inhibition rate TGI (%)” value in data set [7] is 54%.
Turning to `C[C@H](NC(=O)c1c(C(F)F)nn(C)c1Oc1csc(C(F)(F)F)c1)c1ccc(C(=O)O)cc1` [Compound I-42, (S)-4-(1-(3-(difluoromethyl)-1-methyl-5-((5-(trifluoromethyl)thiophen-3-yl)oxy)-1H-pyrazole-4-carboxamido)ethyl)benzoic Acid], in data set [1], the IC50 worked out at 13 nM and the inhibition constant Ki worked out at 7.3 nM. The compound also returned an IC50 against human EP4 receptor [2] of 8.6 nM. In data set [3] (setting [8]), the AUC(0-t) came out at 2440 ng·h/mL, the peak level (Cmax) was 570 ng/mL, the time to peak (Tmax) was determined as 0.33 h and the half-life is 23.2 h. For the same compound, in data set [6] (setting [11]), the AUC(0-t) was 7190 ng·h/mL, the Cmax was 4850 ng/mL, the Tmax came to 0.25 h and the half-life is 8.35 h. Moreover, the IC50 on human EP4 receptor [4] was found to be 15 nM.
`C[C@H](NC(=O)c1c(C(F)F)nn(C)c1Oc1cccc(CC(F)(F)F)c1)c1ccc(C(=O)O)cc1` [Compound I-6, (S)-4-(1-(3-(difluoromethyl)-1-methyl-5-(3-(2,2,2-trifluoroethyl)phenoxy)-1H-pyrazole-4-carboxamido)ethyl)benzoic Acid]: in data set [1], the half-maximal inhibitory concentration (IC50) was 11 nM and the Ki is 5.8 nM. The midpoint of inhibition on human EP4 receptor [2], the IC50, lay at 8.2 nM. Further, in data set [3] (setting [8]), the exposure AUC(0-t) came to 4440 ng·h/mL, the Cmax is 1280 ng/mL, the time of peak concentration (Tmax) was 0.42 h and the half-life was 7.22 h. Also, the IC50 at human EP4 receptor [4] came out at 8 nM.
`C[C@H](NC(=O)c1c(C(F)F)nn(C)c1Oc1cccc(C2CC2)c1)c1ccc(C(=O)O)cc1` [Compound I-3, (S)-4-(1-(5-(3-cyclopropylphenoxy)-3-(difluoromethyl)-1-methyl-1H-pyrazole-4-carboxamido)ethyl)benzoic Acid]: the figures for the IC50 (in data set [1]; on human EP4 receptor [2]; at human EP4 receptor [4]) were 9 nM, 2.8 nM and 3 nM, respectively. The Ki in data set [1] is 4.9 nM.
Take `CCc1cccc(Oc2c(C(=O)N[C@@H](C)c3ccc(C(=O)O)cc3)c(C(F)F)nn2C)c1` [Compound I-1, (S)-4-(1-(3-(difluoromethyl)-5-(3-ethylphenoxy)-1-methyl-1H-pyrazole-4-carboxamido)ethyl)benzoic Acid]: in data set [1], the IC50 is 16 nM and the Ki was found to be 8.9 nM. Inhibition against human EP4 receptor [2] was half-maximal at 3.7 nM (IC50). Also, in data set [3] (setting [8]), the AUC(0-t) turned out to be 2140 ng·h/mL, the peak concentration (Cmax) stood at 1110 ng/mL, the Tmax came out at 0.33 h and the half-life is 4.33 h. Moreover, the IC50 at human EP4 receptor [4] was 15 nM.
